Data: patent publication US20230212131A1, “COLLAGEN 1 TRANSLATION INHIBITORS AND METHODS OF USE THEREOF” (Anima Biotech Inc., priority 2020, published 2023)

System: collagen 1 (COL1)
Assay: WI-38 collagen 1 inhibition assay
Assay type: cell-based, human
Conditions: Cellular EC50, WI-38 cells; values are classes of LogEC50
Summary of the method: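 WI-38 fibroblasts serum-starved (0.25% FBS 2 h, then none 24 h), then given a collagen induction cocktail together with compound. Cells fixed, immunostained for collagen I with DAPI counterstain, and imaged at 20×; per-cell fluorescence quantified by image analysis.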

| SMILES | COL1 Efficacy (LogEC50) |
| --- | --- |
| CS(=O)(=O)N1CCC(Oc2ccc(C(=O)Nc3nc(-c4ccccc4Cl)cs3)nc2)CC1 [compound 438, N-(4-(2-chlorophenyl)thiazol-2-yl)-5-((1-(methylsulfonyl)piperidin-4-yl)oxy)picolinamide] | +++ (+++: <−6) |
| CN1CCC(Oc2ccc(C(=O)Nc3nc(-c4ccccc4Cl)cs3)nc2)CC1 [compound 439, N-(4-(2-chlorophenyl)thiazol-2-yl)-5-((1-methylpiperidin-4-yl)oxy)picolinamide] | +++ (+++: <−6) |
| CC(=O)N1CCC(Oc2ccc(C(=O)Nc3nc(-c4ccccc4Cl)cs3)nc2)CC1 [compound 440, 5-((1-acetylpiperidin-4-yl)oxy)-N-(4-(2-chlorophenyl)thiazol-2-yl)picolinamide] | +++ (+++: <−6) |
| CC(=O)N1CCN(c2ccc(C(=O)Nc3nc(-c4ccccc4Cl)cs3)nc2)CC1 [compound 442, 5-(4-acetylpiperazin-1-yl)-N-(4-(2-chlorophenyl)thiazol-2-yl)picolinamide] | +++ (+++: <−6) |
| CC(=O)N1CC2(C1)CN(c1ccc(C(=O)Nc3nc(-c4ccccc4Cl)cs3)nc1)C2 [compound 449, 5-(6-acetyl-2,6-diazaspiro[3.3]heptan-2-yl)-N-(4-(2-chlorophenyl)thiazol-2-yl)picolinamide] | +++ (+++: <−6) |
| O=C(Nc1nc(-c2ccccc2Cl)cs1)c1ccc(C(=O)N2CCNCC2)cn1 [compound 451, N-(4-(2-chlorophenyl)thiazol-2-yl)-5-(piperazine-1-carbonyl)picolinamide] | ++ (++: −5 to −6) |
| CN1CCC2(CCN(c3ccc(C(=O)Nc4nc(-c5ccccc5Cl)cs4)nc3)CC2)C1=O [compound 452, N-(4-(2-chlorophenyl)thiazol-2-yl)-5-(2-methyl-1-oxo-2,8-diazaspiro[4.5]decan-8-yl)picolinamide] | +++ (+++: <−6) |
| CN1CC2(CCN(c3ccc(C(=O)Nc4nc(-c5ccccc5Cl)cs4)nc3)CC2)C1 [compound 456, N-(4-(2-chlorophenyl)thiazol-2-yl)-5-(2-methyl-2,7-diazaspiro[3.5]nonan-7-yl)picolinamide] | +++ (+++: <−6) |
| CNCc1ccccc1-c1csc(NC(=O)c2ccc(N3CCN(S(C)(=O)=O)CC3)cn2)n1 [compound 457] | − (−: inactive) |
| CC(=O)N1CCN(c2cnc(C(=O)Nc3nc(-c4ccccc4Cl)cs3)c(C)c2)CC1 [compound 458, 5-(4-acetylpiperazin-1-yl)-N-(4-(2-chlorophenyl)thiazol-2-yl)-3-methylpicolinamide] | +++ (+++: <−6) |
| CN1CC2(C1)CN(c1ccc(C(=O)Nc3nc(-c4ccccc4Cl)cs3)nc1)C2 [compound 459] | − (−: inactive) |
| O=C(Nc1nc(-c2ccccc2Cl)cs1)c1ccc(N2CCN3CCCC3C2)cn1 (stereo not drawn) [compound 461, N-(4-(2-chlorophenyl)thiazol-2-yl)-5-(hexahydropyrrolo[1,2-a]pyrazin-2(1H)-yl)picolinamide] | +++ (+++: <−6) |
| C[C@H]1COCCN1c1ccc(C(=O)Nc2nc(-c3ccccc3Cl)cs2)nc1 [compound 464, (S)—N-(4-(2-chlorophenyl)thiazol-2-yl)-5-(3-methylmorpholino)picolinamide] | +++ (+++: <−6) |
| O=C(Nc1nc(-c2ccccc2Cl)cs1)c1ccc(N2CCCC2=O)cn1 [compound 465] | − (−: inactive) |
| COCc1ccccc1-c1csc(NC(=O)c2ccc(N3CCN(C(C)=O)CC3)cn2)n1 [compound 469, 5-(4-acetylpiperazin-1-yl)-N-(4-(2-(methoxymethyl)phenyl)thiazol-2-yl)picolinamide] | +++ (+++: <−6) |
| CC(=O)N1CCN(c2ccc(C(=O)Nc3nc(-c4ccccc4CO)cs3)nc2)CC1 [compound 470, 5-(4-acetylpiperazin-1-yl)-N-(4-(2-(hydroxymethyl)phenyl)thiazol-2-yl)picolinamide] | +++ (+++: <−6) |
| COCc1ncccc1-c1csc(NC(=O)c2ccc(N3CCN(C(C)=O)CC3)cn2)n1 [compound 471, 5-(4-acetylpiperazin-1-yl)-N-(4-(2-(methoxymethyl)pyridin-3-yl)thiazol-2-yl)picolinamide] | +++ (+++: <−6) |
| CC(=O)N1CCN(c2ccc(C(=O)Nc3nc(-c4cccnc4CO)cs3)nc2)CC1 [compound 472, 5-(4-acetylpiperazin-1-yl)-N-(4-(2-(hydroxymethyl)pyridin-3-yl)thiazol-2-yl)picolinamide] | ++ (++: −5 to −6) |
| CC(=O)N1CCN(c2ccc(C(=O)Nc3nc(-c4ccccc4Cl)cs3)c(C)c2)CC1 [compound 473, 4-(4-acetylpiperazin-1-yl)-N-(4-(2-chlorophenyl)thiazol-2-yl)-2-methylbenzamide] | +++ (+++: <−6) |
| CC(=O)N1CCN(c2cc(C)c(C(=O)Nc3nc(-c4ccccc4Cl)cs3)c(C)c2)CC1 [compound 474] | − (−: inactive) |
| NC1CCN(c2ccc(C(=O)Nc3nc(-c4ccccc4Cl)cs3)nc2)CC1 [compound 475, 5-(4-aminopiperidin-1-yl)-N-(4-(2-chlorophenyl)thiazol-2-yl)picolinamide] | +++ (+++: <−6) |
| CNC1CCN(c2ccc(C(=O)Nc3nc(-c4ccccc4Cl)cs3)nc2)CC1 [compound 476] | − (−: inactive) |
| O=C(Nc1nc(-c2ccccc2Cl)cs1)c1ccc(N2CCCC(O)C2)cn1 (stereo not drawn) [compound 477, N-(4-(2-chlorophenyl)thiazol-2-yl)-5-(3-hydroxypiperidin-1-yl)picolinamide] | +++ (+++: <−6) |
| O=C(Nc1nc(-c2ccccc2Cl)cs1)c1ccc(N2CCC(CCO)CC2)cn1 [compound 478, N-(4-(2-chlorophenyl)thiazol-2-yl)-5-(4-(2-hydroxyethyl)piperidin-1-yl)picolinamide] | +++ (+++: <−6) |
| O=C(Nc1nc(-c2ccccc2Cl)cs1)c1ccc(N2CCC(CO)CC2)cn1 [compound 479, N-(4-(2-chlorophenyl)thiazol-2-yl)-5-(4-(hydroxymethyl)piperidin-1-yl)picolinamide] | +++ (+++: <−6) |
| CC(=O)NCc1ccccc1-c1csc(NC(=O)c2ccc(N3CCN(S(C)(=O)=O)CC3)cn2)n1 [compound 480] | − (−: inactive) |
| O=C(Nc1nc(-c2ccccc2Cl)cs1)c1ccc(N2CCCC2)cn1 [compound 481, N-(4-(2-chlorophenyl)thiazol-2-yl)-5-(pyrrolidin-1-yl)picolinamide] | +++ (+++: <−6) |
| C#CCCC1(CCN2CCN(c3ccc(C(=O)Nc4nc(-c5ccccc5Cl)cs4)cc3)CC2)N=N1 [compound 484, 4-(4-(2-(3-(but-3-yn-1-yl)-3H-diazirin-3-yl)ethyl)piperazin-1-yl)-N-(4-(2-chlorophenyl)thiazol-2-yl)benzamide hemiformate] | +++ (+++: <−6) |
| O=C(Nc1nc(-c2ccccc2Cl)cs1)c1ccc(N2CCC[C@@H](O)C2)cn1 [compound 487, (R)—N-(4-(2-chlorophenyl)thiazol-2-yl)-5-(3-hydroxypiperidin-1-yl)picolinamide] | +++ (+++: <−6) |
| O=C(Nc1nc(-c2ccccc2Cl)cs1)c1ccc(N2CCC[C@H](O)C2)cn1 [compound 488, (S)—N-(4-(2-chlorophenyl)thiazol-2-yl)-5-(3-hydroxypiperidin-1-yl)picolinamide] | +++ (+++: <−6) |
